# Results published in patent publication US10835533B2, “1 -((3S,4R)-4-(3-fluorophenyl)-1-(2-methoxyethyl)pyrrolidin-3-yl)-3-(4-methyl-3-(2-methylpyrimidin-5-yl)-1-phenyl-1H-pyrazol-5-yl)urea as a TrkA kinase inhibitor” (Array BioPharma Inc., priority 2014, dated 2020).
# Experiments:
# Test in all cases: KinaseProfiler kinase profiling
# Type in all cases: biochemical
# Conditions in all cases: 10 μM, ATP near Km
# [1] = target: T1, MKNK2 (Homo sapiens, UniProt Q9HBH9)
# T1 construct: purchased Millipore, Inc. (KinaseProfiler service)
# T1 sequence (Q9HBH9 whole entry): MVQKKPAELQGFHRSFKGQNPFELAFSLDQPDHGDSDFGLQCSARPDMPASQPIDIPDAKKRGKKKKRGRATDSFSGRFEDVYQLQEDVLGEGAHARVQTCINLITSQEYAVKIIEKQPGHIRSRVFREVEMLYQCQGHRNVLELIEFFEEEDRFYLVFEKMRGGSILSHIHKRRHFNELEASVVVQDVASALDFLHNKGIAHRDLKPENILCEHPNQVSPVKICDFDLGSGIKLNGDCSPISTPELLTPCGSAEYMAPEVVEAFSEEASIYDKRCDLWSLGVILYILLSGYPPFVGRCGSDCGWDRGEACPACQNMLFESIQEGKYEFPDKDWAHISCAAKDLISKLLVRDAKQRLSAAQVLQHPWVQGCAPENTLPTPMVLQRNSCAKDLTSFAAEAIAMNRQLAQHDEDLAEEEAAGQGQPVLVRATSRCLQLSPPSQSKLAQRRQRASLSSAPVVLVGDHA
# Experimental: (§1) Compound 1 was tested for off-target kinase activity at a concentration of 10 μM by Millipore, Inc. in their KinaseProfiler™ service against all the kinases available in their full kinase panel. Compound 1 was run in duplicate at a concentration of ATP near the Km for each individual kinase according to Millipore's specifications. Data are reported as percent of control (POC) and are the average of the two replicates.
# [2] = target: T2, c-RAF (Homo sapiens, UniProt P04049)
# T2 construct: purchased Millipore, Inc. (KinaseProfiler service)
# Experimental: as §1
# [3] = target: T3, MAP4K2 (Homo sapiens, UniProt Q12851)
# T3 construct: purchased Millipore, Inc. (KinaseProfiler service)
# Experimental: as §1
# [4] = target: T4, EphA7 (Homo sapiens, UniProt Q15375)
# T4 construct: purchased Millipore, Inc. (KinaseProfiler service)
# Experimental: as §1
# [5] = target: T5, TLK2 (Homo sapiens, UniProt Q86UE8)
# T5 construct: purchased Millipore, Inc. (KinaseProfiler service)
# Experimental: as §1
# [6] = target: T6, CAMK4 (Homo sapiens, UniProt Q16566)
# T6 construct: purchased Millipore, Inc. (KinaseProfiler service)
# Experimental: as §1
# [7] = target: T7, MSK2 (Homo sapiens, UniProt O75676)
# T7 construct: purchased Millipore, Inc. (KinaseProfiler service)
# Experimental: as §1
# [8] = target: T8, MST1 (Homo sapiens, UniProt Q13043)
# T8 construct: purchased Millipore, Inc. (KinaseProfiler service)
# Experimental: as §1
# [9] = target: T9, CAMK2b (Homo sapiens, UniProt Q13554)
# T9 construct: purchased Millipore, Inc. (KinaseProfiler service)
# Experimental: as §1
# [10] = target: T10, CAMK2g (Homo sapiens, UniProt Q13555)
# T10 construct: purchased Millipore, Inc. (KinaseProfiler service)
# T10 sequence (Q13555 whole entry): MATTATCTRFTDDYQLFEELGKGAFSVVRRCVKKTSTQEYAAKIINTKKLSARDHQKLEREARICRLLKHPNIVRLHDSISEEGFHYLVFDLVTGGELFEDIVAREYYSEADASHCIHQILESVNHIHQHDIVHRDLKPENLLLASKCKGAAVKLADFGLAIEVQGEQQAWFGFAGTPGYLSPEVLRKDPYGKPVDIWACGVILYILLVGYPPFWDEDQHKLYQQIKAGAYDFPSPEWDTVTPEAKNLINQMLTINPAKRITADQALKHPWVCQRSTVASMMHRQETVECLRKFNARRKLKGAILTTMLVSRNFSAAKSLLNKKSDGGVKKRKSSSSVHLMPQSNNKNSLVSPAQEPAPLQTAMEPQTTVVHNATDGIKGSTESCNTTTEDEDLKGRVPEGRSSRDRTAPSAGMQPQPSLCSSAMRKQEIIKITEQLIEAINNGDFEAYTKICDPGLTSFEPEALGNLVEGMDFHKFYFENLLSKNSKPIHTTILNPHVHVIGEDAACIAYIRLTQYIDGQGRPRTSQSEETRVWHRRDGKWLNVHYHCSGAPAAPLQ
# Experimental: as §1
# [11] = target: T11, ERK2 (Homo sapiens, UniProt P28482)
# T11 construct: purchased Millipore, Inc. (KinaseProfiler service)
# Experimental: as §1
# [12] = target: T12, TAK1-TAB1 (Homo sapiens, UniProt O43318)
# T12 construct: purchased Millipore, Inc. (KinaseProfiler service)
# Experimental: as §1
# [13] = target: T13, TAO2 (Homo sapiens, UniProt Q9UL54)
# T13 construct: purchased Millipore, Inc. (KinaseProfiler service)
# Experimental: as §1
# [14] = target: T14, EphA5 (Homo sapiens, UniProt P54756)
# T14 construct: purchased Millipore, Inc. (KinaseProfiler service)
# Experimental: as §1
# [15] = target: T15, AMPK(A1/B1/G1) (Homo sapiens, UniProt Q13131)
# T15 construct: purchased Millipore, Inc. (KinaseProfiler service)
# Experimental: as §1
# [16] = target: T16, Mer (Homo sapiens, UniProt Q12866)
# T16 construct: purchased Millipore, Inc. (KinaseProfiler service)
# Experimental: as §1
# [17] = target: T17, PhKgamma2 (Homo sapiens, UniProt P15735)
# T17 construct: purchased Millipore, Inc. (KinaseProfiler service)
# Experimental: as §1
# [18] = target: T18, FAK2 (Homo sapiens, UniProt Q14289)
# T18 construct: purchased Millipore, Inc. (KinaseProfiler service)
# T18 sequence (Q14289 whole entry): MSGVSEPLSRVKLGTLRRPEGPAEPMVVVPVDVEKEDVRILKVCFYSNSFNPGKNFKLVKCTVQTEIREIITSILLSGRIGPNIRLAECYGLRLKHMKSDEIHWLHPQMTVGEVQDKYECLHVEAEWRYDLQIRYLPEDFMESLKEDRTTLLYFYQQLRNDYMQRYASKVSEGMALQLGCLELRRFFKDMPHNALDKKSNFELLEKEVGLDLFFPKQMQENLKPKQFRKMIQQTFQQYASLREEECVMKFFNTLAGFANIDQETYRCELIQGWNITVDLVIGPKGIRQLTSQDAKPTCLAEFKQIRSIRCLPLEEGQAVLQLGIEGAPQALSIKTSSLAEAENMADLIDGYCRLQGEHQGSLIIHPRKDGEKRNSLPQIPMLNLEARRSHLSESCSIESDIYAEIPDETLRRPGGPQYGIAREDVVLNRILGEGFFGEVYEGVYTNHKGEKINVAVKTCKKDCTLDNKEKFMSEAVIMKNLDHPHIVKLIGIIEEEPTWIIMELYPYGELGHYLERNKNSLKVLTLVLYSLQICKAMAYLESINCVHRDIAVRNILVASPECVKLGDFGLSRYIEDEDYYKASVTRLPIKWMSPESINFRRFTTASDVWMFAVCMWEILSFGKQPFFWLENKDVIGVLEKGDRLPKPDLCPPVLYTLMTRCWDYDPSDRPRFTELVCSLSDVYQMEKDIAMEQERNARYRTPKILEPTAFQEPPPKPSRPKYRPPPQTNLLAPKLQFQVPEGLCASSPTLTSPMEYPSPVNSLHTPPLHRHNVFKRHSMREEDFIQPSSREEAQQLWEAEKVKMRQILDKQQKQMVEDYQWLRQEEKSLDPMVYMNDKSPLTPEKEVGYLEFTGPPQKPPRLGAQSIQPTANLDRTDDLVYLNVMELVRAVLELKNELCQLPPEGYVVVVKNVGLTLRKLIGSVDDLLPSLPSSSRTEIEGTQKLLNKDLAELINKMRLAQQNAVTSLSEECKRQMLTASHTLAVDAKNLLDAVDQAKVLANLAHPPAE
# Experimental: as §1
# [19] = target: T19, AKT1 (Homo sapiens, UniProt P31749)
# T19 construct: purchased Millipore, Inc. (KinaseProfiler service)
# Experimental: as §1
# [20] = target: T20, mTOR/FKBP12 (Homo sapiens, UniProt P42345)
# T20 construct: purchased Millipore, Inc. (KinaseProfiler service)
# Experimental: as §1
# [21] = target: T21, GSK3alpha (Homo sapiens, UniProt P49840)
# T21 construct: purchased Millipore, Inc. (KinaseProfiler service)
# Experimental: as §1
# [22] = target: T22, p38beta (Homo sapiens, UniProt Q15759)
# T22 construct: purchased Millipore, Inc. (KinaseProfiler service)
# Experimental: as §1
# [23] = target: T23, CDK2/cyclinE (Homo sapiens, UniProt P24941)
# T23 construct: purchased Millipore, Inc. (KinaseProfiler service)
# Experimental: as §1
# [24] = target: T24, CDK3/cyclinE (Homo sapiens, UniProt Q00526)
# T24 construct: purchased Millipore, Inc. (KinaseProfiler service)
# Experimental: as §1
# [25] = target: T25, mTOR (Homo sapiens, UniProt P42345)
# T25 construct: purchased Millipore, Inc. (KinaseProfiler service)
# Experimental: as §1
# [26] = target: T26, EphB2 (Homo sapiens, UniProt P29323)
# T26 construct: purchased Millipore, Inc. (KinaseProfiler service)
# Experimental: as §1
# [27] = target: T27, Met (Homo sapiens, UniProt P08581)
# T27 construct: purchased Millipore, Inc. (KinaseProfiler service)
# Experimental: as §1
# [28] = target: T28, NLK (Homo sapiens, UniProt Q9UBE8)
# T28 construct: purchased Millipore, Inc. (KinaseProfiler service)
# T28 sequence (Q9UBE8 whole entry): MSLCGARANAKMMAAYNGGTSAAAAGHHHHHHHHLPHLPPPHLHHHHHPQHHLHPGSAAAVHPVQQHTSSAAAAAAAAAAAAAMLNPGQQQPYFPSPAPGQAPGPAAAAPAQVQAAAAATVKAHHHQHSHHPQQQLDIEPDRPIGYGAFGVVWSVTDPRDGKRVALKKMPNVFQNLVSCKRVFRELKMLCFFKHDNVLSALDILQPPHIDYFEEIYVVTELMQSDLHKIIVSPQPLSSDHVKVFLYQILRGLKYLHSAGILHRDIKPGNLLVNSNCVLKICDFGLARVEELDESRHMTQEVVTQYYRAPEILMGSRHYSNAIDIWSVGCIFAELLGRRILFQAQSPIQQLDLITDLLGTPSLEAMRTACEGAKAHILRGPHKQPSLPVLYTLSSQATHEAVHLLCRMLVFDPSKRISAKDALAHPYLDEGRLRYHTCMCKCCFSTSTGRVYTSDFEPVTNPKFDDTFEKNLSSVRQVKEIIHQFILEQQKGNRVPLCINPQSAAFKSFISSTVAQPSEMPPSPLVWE
# Experimental: as §1
# [29] = target: T29, Fms (Homo sapiens, UniProt P07333)
# T29 construct: purchased Millipore, Inc. (KinaseProfiler service)
# Experimental: as §1
# [30] = target: T30, PKCtheta (Homo sapiens, UniProt Q04759)
# T30 construct: purchased Millipore, Inc. (KinaseProfiler service)
# Experimental: as §1
# [31] = target: T31, DAPK1 (Homo sapiens, UniProt P53355)
# T31 construct: purchased Millipore, Inc. (KinaseProfiler service)
# T31 sequence (P53355 whole entry): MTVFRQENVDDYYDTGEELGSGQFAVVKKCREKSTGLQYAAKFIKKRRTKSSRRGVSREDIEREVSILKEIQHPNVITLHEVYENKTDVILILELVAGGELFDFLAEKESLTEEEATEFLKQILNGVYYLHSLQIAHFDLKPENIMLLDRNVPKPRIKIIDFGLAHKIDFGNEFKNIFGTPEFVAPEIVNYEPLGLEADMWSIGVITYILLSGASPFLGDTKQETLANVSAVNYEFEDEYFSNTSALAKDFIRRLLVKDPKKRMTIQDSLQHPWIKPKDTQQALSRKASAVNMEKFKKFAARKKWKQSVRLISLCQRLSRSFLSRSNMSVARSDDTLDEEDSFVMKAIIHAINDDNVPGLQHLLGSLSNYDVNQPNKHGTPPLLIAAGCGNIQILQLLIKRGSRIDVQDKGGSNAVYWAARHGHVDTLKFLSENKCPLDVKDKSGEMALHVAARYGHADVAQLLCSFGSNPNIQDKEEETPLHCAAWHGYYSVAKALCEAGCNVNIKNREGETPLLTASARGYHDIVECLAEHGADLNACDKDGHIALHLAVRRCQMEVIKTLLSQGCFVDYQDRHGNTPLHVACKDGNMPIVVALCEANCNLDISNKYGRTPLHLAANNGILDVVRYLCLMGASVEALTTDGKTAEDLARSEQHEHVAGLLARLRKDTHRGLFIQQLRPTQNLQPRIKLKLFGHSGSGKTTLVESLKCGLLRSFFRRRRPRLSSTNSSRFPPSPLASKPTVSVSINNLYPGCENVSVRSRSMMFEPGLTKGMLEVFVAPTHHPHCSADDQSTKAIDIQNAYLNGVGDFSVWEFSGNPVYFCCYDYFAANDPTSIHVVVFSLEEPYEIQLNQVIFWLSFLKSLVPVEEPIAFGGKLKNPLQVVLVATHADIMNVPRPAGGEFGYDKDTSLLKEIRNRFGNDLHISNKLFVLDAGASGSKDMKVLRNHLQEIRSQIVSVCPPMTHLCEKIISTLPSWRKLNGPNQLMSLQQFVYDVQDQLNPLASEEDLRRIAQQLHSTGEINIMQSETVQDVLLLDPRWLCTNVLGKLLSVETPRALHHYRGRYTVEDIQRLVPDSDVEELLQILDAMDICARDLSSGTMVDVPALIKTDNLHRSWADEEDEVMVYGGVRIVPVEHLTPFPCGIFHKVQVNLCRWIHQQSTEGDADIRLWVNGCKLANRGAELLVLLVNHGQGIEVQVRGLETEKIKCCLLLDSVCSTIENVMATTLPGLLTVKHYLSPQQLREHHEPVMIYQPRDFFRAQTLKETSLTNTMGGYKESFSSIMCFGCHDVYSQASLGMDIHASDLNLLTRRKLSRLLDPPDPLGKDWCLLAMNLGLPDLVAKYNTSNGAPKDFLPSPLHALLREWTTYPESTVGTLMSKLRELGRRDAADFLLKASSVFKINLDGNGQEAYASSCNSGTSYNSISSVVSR
# Experimental: as §1
# [32] = target: T32, PRKG1beta (Homo sapiens, UniProt Q13976)
# T32 construct: purchased Millipore, Inc. (KinaseProfiler service)
# Experimental: as §1
# [33] = target: T33, DRAK1 (Homo sapiens, UniProt Q9UEE5)
# T33 construct: purchased Millipore, Inc. (KinaseProfiler service)
# Experimental: as §1
# [34] = target: T34, Pim-3 (Homo sapiens, UniProt Q86V86)
# T34 construct: purchased Millipore, Inc. (KinaseProfiler service)
# Experimental: as §1
# [35] = target: T35, PKCbetaII (Homo sapiens, UniProt P05771)
# T35 construct: purchased Millipore, Inc. (KinaseProfiler service)
# T35 sequence (P05771 1-673 isoform P05771-2): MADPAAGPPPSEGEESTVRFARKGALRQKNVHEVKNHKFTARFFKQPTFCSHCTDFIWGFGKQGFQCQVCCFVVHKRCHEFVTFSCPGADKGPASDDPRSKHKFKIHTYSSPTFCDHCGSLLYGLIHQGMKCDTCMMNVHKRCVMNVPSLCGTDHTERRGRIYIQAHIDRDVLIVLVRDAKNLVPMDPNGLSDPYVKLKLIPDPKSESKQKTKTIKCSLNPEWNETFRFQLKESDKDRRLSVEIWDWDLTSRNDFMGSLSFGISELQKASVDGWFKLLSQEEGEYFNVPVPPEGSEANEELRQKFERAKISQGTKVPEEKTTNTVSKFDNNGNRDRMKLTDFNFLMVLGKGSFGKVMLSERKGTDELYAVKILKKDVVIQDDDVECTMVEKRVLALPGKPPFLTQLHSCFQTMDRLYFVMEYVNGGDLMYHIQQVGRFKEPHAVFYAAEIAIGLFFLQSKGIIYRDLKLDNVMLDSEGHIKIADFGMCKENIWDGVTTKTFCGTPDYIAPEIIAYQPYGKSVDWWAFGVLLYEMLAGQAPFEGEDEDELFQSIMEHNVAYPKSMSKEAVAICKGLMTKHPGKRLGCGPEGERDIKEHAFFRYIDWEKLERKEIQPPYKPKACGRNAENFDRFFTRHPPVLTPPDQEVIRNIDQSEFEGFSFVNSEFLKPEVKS
# Experimental: as §1
# [36] = target: T36, HIPK2 (Homo sapiens, UniProt Q9H2X6)
# T36 construct: purchased Millipore, Inc. (KinaseProfiler service)
# Experimental: as §1
# [37] = target: T37, p38alpha (Homo sapiens, UniProt Q16539)
# T37 construct: purchased Millipore, Inc. (KinaseProfiler service)
# T37 sequence (Q16539 whole entry): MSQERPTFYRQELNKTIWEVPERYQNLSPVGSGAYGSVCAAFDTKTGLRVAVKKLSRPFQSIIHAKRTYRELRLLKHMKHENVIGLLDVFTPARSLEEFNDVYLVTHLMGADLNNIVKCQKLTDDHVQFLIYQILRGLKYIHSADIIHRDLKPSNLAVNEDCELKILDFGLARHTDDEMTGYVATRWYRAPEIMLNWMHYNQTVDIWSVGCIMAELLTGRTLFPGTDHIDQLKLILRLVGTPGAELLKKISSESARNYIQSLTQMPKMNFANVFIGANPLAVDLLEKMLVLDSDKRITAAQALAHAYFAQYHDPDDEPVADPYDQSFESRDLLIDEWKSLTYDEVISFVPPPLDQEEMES
# Experimental: as §1
# [38] = target: T38, EphB3 (Homo sapiens, UniProt P54753)
# T38 construct: purchased Millipore, Inc. (KinaseProfiler service)
# Experimental: as §1
# [39] = target: T39, CK1gamma2 (Homo sapiens, UniProt P78368)
# T39 construct: purchased Millipore, Inc. (KinaseProfiler service)
# Experimental: as §1
# [40] = target: T40, PDK1 (Homo sapiens, UniProt O15530)
# T40 construct: purchased Millipore, Inc. (KinaseProfiler service)
# Experimental: as §1
smiles,measurement,setting,value
"COCCN1C[C@@H](NC(=O)Nc2c(C)c(-c3cnc(C)nc3)nn2-c2ccccc2)[C@H](c2cccc(F)c2)C1 [Compound 1, 1-((3S,4R)-4-(3-fluorophenyl)-1-(2-methoxyethyl)pyrrolidin-3-yl)-3-(4-methyl-3-(2-methylpyrimidin-5-yl)-1-phenyl-1H-pyrazol-5-yl)urea]",Avg POC,[1],111 POC
same,Avg POC,[2],101 POC
same,Avg POC,[3],101 POC
same,Avg POC,[4],109 POC
same,Avg POC,[5],101.5 POC
same,Avg POC,[6],100 POC
same,Avg POC,[7],116.5 POC
same,Avg POC,[8],107.5 POC
same,Avg POC,[9],147.5 POC
same,Avg POC,[10],97 POC
same,Avg POC,[11],100 POC
same,Avg POC,[12],101.5 POC
same,Avg POC,[13],100 POC
same,Avg POC,[14],109.5 POC
same,Avg POC,[15],102.5 POC
same,Avg POC,[16],147.5 POC
same,Avg POC,[17],108 POC
same,Avg POC,[18],92.5 POC
same,Avg POC,[19],104 POC
same,Avg POC,[20],105.5 POC
same,Avg POC,[21],109.5 POC
same,Avg POC,[22],102 POC
same,Avg POC,[23],102 POC
same,Avg POC,[24],94.5 POC
same,Avg POC,[25],97.5 POC
same,Avg POC,[26],98 POC
same,Avg POC,[27],124.5 POC
same,Avg POC,[28],94.5 POC
same,Avg POC,[29],103 POC
same,Avg POC,[30],128.5 POC
same,Avg POC,[31],114 POC
same,Avg POC,[32],95.5 POC
same,Avg POC,[33],129.5 POC
same,Avg POC,[34],106.5 POC
same,Avg POC,[35],99.5 POC
same,Avg POC,[36],101.5 POC
same,Avg POC,[37],107.5 POC
same,Avg POC,[38],89.5 POC
same,Avg POC,[39],61.5 POC
same,Avg POC,[40],104 POC
